From patent US20240374738A1, “BIFUNCTIONAL COMPOUND CAPABLE OF DEGRADING RECEPTOR TYROSINE KINASE AND APPLICATION THEREOF” (TAIBIDI PHARMACEUTICAL TECHNOLOGY (SHIJIAZHUANG) CO., LTD., priority 2023, published 2024)
Where a SMILES comes first, the peptide text is derived from it. The star is where a group is joined. Cbz = O=C(OCc1ccccc1)*

Key:
Format in all cases: cell-based
DDR1 [1] = molecular target: T1, DDR1 (Homo sapiens, UniProt Q08345); assay: Experiments with inhibitors of the ubiquitin-proteasome system (DDR1 Western blot); design: endogenous in cells; host or cells: unnamed tumor cells; settings: MG132 10 uM or MLN4924 1 uM for 6 hours, then TPD12140 100 nM 18 h
T1 sequence (Q08345 19-913): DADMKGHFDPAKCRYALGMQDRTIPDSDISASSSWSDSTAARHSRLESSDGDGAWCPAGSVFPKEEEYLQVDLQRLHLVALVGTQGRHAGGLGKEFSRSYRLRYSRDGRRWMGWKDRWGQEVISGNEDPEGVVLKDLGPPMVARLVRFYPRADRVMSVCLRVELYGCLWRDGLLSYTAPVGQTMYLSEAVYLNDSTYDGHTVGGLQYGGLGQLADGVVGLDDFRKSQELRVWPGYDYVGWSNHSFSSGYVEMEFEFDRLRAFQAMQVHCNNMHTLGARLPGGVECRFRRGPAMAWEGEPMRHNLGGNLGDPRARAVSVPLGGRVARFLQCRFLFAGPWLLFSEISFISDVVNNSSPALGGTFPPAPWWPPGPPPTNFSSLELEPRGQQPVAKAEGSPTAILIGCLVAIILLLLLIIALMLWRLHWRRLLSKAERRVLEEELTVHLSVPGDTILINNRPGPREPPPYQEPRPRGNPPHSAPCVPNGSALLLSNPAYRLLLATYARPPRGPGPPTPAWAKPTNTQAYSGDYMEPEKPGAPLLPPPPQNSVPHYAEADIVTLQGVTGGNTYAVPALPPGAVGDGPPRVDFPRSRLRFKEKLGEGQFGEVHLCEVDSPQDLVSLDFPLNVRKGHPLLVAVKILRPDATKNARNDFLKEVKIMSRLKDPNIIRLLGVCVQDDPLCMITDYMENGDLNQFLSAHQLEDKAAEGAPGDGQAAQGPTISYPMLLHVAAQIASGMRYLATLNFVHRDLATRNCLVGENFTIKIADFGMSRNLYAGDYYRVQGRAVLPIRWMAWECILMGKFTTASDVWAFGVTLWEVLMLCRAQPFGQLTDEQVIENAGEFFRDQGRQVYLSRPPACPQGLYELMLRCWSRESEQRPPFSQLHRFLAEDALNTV
Procedure: Tumor cells were inoculated into 6-well plates with 1-3×10^5 cells per well, and the cell growth status was observed the next day. When the cells grew to about 80% confluence, the proteasome inhibitor MG132 (working concentration 10 uM) or the protein ubiquitination inhibitor MLN4924 (working concentration 1 uM) was added to the cell culture medium of the experimental group, and an equal volume of DMSO was added to the control group, and the incubation was continued for 6 hours. The medium in the well plates was discarded, washed twice with PBS, fresh medium was added, and compound TPD12140 (working concentration 100 nM) or an equal volume of DMSO was added to each group of cells, and the incubation was continued for 18 h. Western Blot was performed to detect the expression of DDR1 protein (same operation as above). The experiments were repeated three times or more, and the experimental data were statistically analyzed using GraphPad Prism software.

DDR1 [2] = molecular target: T1, DDR1; assay: Competition inhibition experiments (DDR1 Western blot); design: endogenous in cells; host or cells: unnamed tumor cells; settings: TPD12140 100 nM plus different concentrations of competitor, 24 h
Procedure: Tumor cells were taken and inoculated into 6-well plates with 1×3×10^5 cells per well, and the cell growth status was observed on the next day. When the cells reached 80% confluence, TPD12140 (working concentration 100 nM) and different concentrations of cabozantinib or lenalidomide were added to the cell culture medium of the experimental group, and the control group was added with an equal volume of DMSO, and the incubation was continued for 24 h. Western Blot was performed to detect the expression of DDR1 protein (the same operation as above). The experiments were repeated three times or more, and the experimental data were statistically analyzed using GraphPad Prism software.

DDR1 [3] = molecular target: T1, DDR1; assay: Degradation of DDR1 in tumor cell MKN45 (Western blot); design: The degradation activity of the compounds against DDR1 in the MKN45 cell line; endogenous in cells; host or cells: MKN45; settings: MKN-45, maximum degradation percentage, MKN45 cells, 24 hours
Outline: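 MKN45 gastric cancer cells were treated with compound dilutions for 24 h at a final DMSO of 0.5%; the 2 mM–200 nM series is the added solution, not the final concentration. DDR1 in lysates was quantified by Western blot, normalized to GAPDH and expressed relative to blank control, giving DC50 and Dmax.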

SNU5 = assay: Growth inhibition of gastric cancer cells SNU5 (CCK-8); settings: Homo sapiens, SNU-5, half inhibitory concentration, 72 hours
Outline: (§1)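 MKN45 or SNU5 cells in 96-well plates were treated with compound dilution series in triplicate for 72 h. Viability was read by CCK-8 (1 h, absorbance 450 nm), and inhibition was calculated against blank and medium-only controls. IC50 came from concentration-response curves.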

MKN45 = assay: Growth inhibition of gastric cancer cells MKN45 (CCK-8); settings: Homo sapiens, MKN-45, half inhibitory concentration, 72 hours
Outline: as §1

| SMILES | Dmax (DDR1 [3]) [%] | IC50 (SNU5) [µM] | IC50 (MKN45) [µM] | effect of inhibitor on degradation of DDR1 by TPD12140 (DDR1 [1]) | effect of competitor on degradation of DDR1 by TPD12140 (DDR1 [2]) |
| --- | --- | --- | --- | --- | --- |
| NS(=O)(=O)OC[C@@H]1C[C@@H](n2ccc3c(N[C@H]4CCc5ccccc54)ncnc32)C[C@@H]1O [MLN4924] | – | – | – | can inhibit the degradation of the compounds | – |
| CC(C)C[C@@H](C=O)NC(=O)[C@H](CC(C)C)NC(=O)[C@H](CC(C)C)NC(=O)OCc1ccccc1 [MG132] (Cbz-Leu-Leu-Leu-aldehyde) | – | – | – | can inhibit the degradation of the compounds | – |
| Nc1cccc2c1CN(C1CCC(=O)NC1=O)C2=O (stereo not drawn) [lenalidomide] | – | – | – | – | inhibits the degradation of DDR1 by the compound |
| COc1cc2c(Oc3ccc(NC(=O)C4(C(=O)Nc5ccc(F)cc5)CC4)cc3)ccnc2cc1NC(=O)CCN1CCC(CN2CCN(c3ccc4c(c3)C(=O)N(C3CCC(=O)NC3=O)C4=O)CC2)CC1 (stereo not drawn) [TPD5734] | 65 to 75 | 0.1 to 0.5 | 0.1 to 0.5 | – | – |
| O=C1CCC(N2Cc3c(C#CCCN4CC5CC(C4)N5CC4CCN(c5cc6nccc(Oc7ccc(NC(=O)C8(C(=O)Nc9ccc(F)cc9)CC8)cc7)c6cc5F)CC4)cccc3C2=O)C(=O)N1 (stereo not drawn) [TPD12235] | 65 to 75 | ≤ 0.1 | ≤ 0.1 | – | – |
| COc1cc2c(Oc3ccc(NC(=O)C4(C(=O)Nc5ccc(F)cc5)CC4)cc3)ccnc2cc1N1CCC(CN2C3CC2CN(CCC=Cc2cc4c(cn2)C(=O)N(C2CCC(=O)NC2=O)C4)C3)CC1 (stereo not drawn) [TPD12238] | 65 to 75 | ≤ 0.1 | ≤ 0.1 | – | – |
| COc1cc2c(Oc3ccc(NC(=O)C4(C(=O)Nc5ccc(F)cc5)CC4)cc3)ccnc2cc1N1CCC(CN2C3CC2CN(CCC(=O)Nc2cc4c(cn2)C(=O)N(C2CCC(=O)NC2=O)C4)C3)CC1 (stereo not drawn) [TPD12112] | 65 to 75 | ≤ 0.1 | ≤ 0.1 | – | – |
| COc1cc2c(Oc3ccc(NC(=O)C4(C(=O)Nc5ccc(F)cc5)CC4)cc3)ccnc2cc1COCCN1CCC(OCCC(=O)N[C@H](C(=O)N2C[C@H](O)C[C@H]2C(=O)NCc2ccc(-c3scnc3C)cc2)C(C)(C)C)CC1 [TPD5305] | 65 to 75 | 0.1 to 0.5 | 0.1 to 0.5 | – | – |

Continued, in another order:

| Dmax (DDR1 [3]) [%] | IC50 (SNU5) [µM] | IC50 (MKN45) [µM] | SMILES | effect of inhibitor on degradation of DDR1 by TPD12140 (DDR1 [1]) | effect of competitor on degradation of DDR1 by TPD12140 (DDR1 [2]) |
| --- | --- | --- | --- | --- | --- |
| > 85 | 0.5 to 1 | 0.1 to 0.5 | COc1cc2c(Oc3ccc(NC(=O)C4(C(=O)Nc5ccc(F)cc5)CC4)cc3)ccnc2cc1NCC(=O)N1CCC(CN2CCN(c3ccc(NC4CCC(=O)NC4=O)nc3F)CC2)CC1 (stereo not drawn) [TPD5774] | – | – |
| > 85 | ≤ 0.1 | ≤ 0.1 | COc1cc2c(Oc3ccc(NC(=O)C4(C(=O)Nc5ccc(F)cc5)CC4)cc3)ccnc2cc1N1CCC(CN2CCN(CCNc3cccc4c3C(=O)N(C3CCC(=O)NC3=O)C4=O)CC2)CC1 (stereo not drawn) [TPD5972] | – | – |
| 75 to 85 | 0.5 to 1 | 0.1 to 0.5 | COc1cc2c(Oc3ccc(NC(=O)C4(C(=O)Nc5ccc(F)cc5)CC4)cc3)ccnc2cc1NC(=O)CN1CCN(CC2CCN(c3ccc4c(c3)C(=O)N(C3CCC(=O)NC3=O)C4=O)CC2)CC1 (stereo not drawn) [TPD5746] | – | – |
| 65 to 75 | 0.1 to 0.5 | 0.5 to 1 | Cc1ncsc1-c1ccc(CNC(=O)[C@@H]2C[C@@H](O)CN2C(=O)[C@@H](NC(=O)CCN2CCC(COc3cnc(-c4cccc(Cn5nc(-c6cccc(C#N)c6)ccc5=O)c4)nc3)CC2)C(C)(C)C)cc1 [TPD10001] | – | – |
| 65 to 75 | 0.1 to 0.5 | 0.1 to 0.5 | O=C1CCC(N2C(=O)c3ccc(N4CCN(CCC5CCN(CCNC(=O)c6ccc(-c7cnc8ncc(Cc9ccc%10ncccc%10c9)n8n7)cc6F)CC5)CC4)cc3C2=O)C(=O)N1 (stereo not drawn) [TPD7022] | – | – |
